In series [1] the test system is PC-3 cells. On the set-up: method as in PMID 24910245. To be noted: reference compound, SD not given; cited from earlier work.
For series [2], the system named is LNCaP cells. More on the design: method as in PMID 24910245. As to conditions: reference compound, SD not given; cited from earlier work.
The subject of series [3] is DU145 cells. More on the design: method as in PMID 24910245. As to conditions: reference compound, SD not given; cited from earlier work.
The test system of series [4] is PC-3 cells. The series is described as follows: In vitro cytotoxicity, CCK-8 assay, PC-3 cells. It counts as cell-based, human. To be noted: PC-3; androgen-insensitive human prostate cancer cell line; CCK-8; 24 h exposure; mean ± SD of three experiments. The method, then:
(§1) The synthesized target compounds 4–21 were evaluated for their in vitro cytotoxic activities against three human prostate cancer cell lines (PC-3, LNCaP, and DU145) and compared with their effects on the human prostate epithelial cell line WPMY-1 by CCK-8 assay.
(§2) PC-3 and WPMY-1 cells were cultured in Dulbecco’s modified Eagle’s medium (DMEM, Invitrogen, Carlsbad, CA, USA) supplemented with 10% fetal bovine serum (FBS, Hyclone, Logan, UT, USA), 100 U/mL penicillin, and 0.1 mg/mL streptomycin (Invitrogen). DU145 cells were cultured in RPMI1640 media supplemented with 10% fetal bovine serum (FBS, Hyclone), 100 U/mL penicillin, and 0.1 mg/mL streptomycin (Invitrogen). LNCaP cells were cultured in F12 media supplemented with 10% fetal bovine serum (FBS, Hyclone), 100 U/mL penicillin, and 0.1 mg/mL streptomycin (Invitrogen). The cells were incubated at 37 °C in a humidified atmosphere with 5% CO2.
(§3) Cell proliferation was measured with the Cell Counting Kit-8 (CCK-8) assay kit (Dojindo Corp., Kumamoto, Japan). Cells were harvested during their logarithmic growth phase, seeded in 96-well plates at a density of 1 × 10^5 cells/mL, and cultured at 37 °C in a humidified incubator (5% CO2) for 24 h, followed by exposure to various concentrations of compounds tested for 24 h. Subsequently, 10 μL of CCK-8 (Dojindo) was added to each well, and the cells were then incubated for an additional 1 h at 37 °C to convert WST-8 into formazan. Cell growth inhibition was determined by measuring the absorbance (Abs) at λ = 450 nm using a microplate reader. Three independent experiments were performed. Cell growth inhibition was calculated according to the following equation: Growth inhibition = (1 − OD of treated cells / OD of control cells) × 100%
(§4) The half maximal inhibitory concentrations (IC50) were obtained from a linear regression analysis of the concentration-response curves plotted for each tested compound.

Series [5] deals with LNCaP cells. Briefly: In vitro cytotoxicity, CCK-8 assay, LNCaP cells. It counts as cell-based, human. To be noted: LNCaP; androgen-sensitive human prostate cancer cell line; CCK-8; 24 h exposure; mean ± SD of three experiments. Here is the method:
as §1, §2, §3, §4

Series [6] concerns DU145 cells. Briefly: In vitro cytotoxicity, CCK-8 assay, DU145 cells. It counts as cell-based, human. The method, then: as §1, §2, §3, §4
Series [7] deals with WPMY-1 cells. The series is described as follows: In vitro cytotoxicity, CCK-8 assay, WPMY-1 prostate epithelial cells. It counts as cell-based, human. To be noted: WPMY-1; human prostate epithelial cell line; CCK-8; 24 h exposure; mean ± SD of three experiments. Here is the method: as §1, §2, §3, §4

We go through two compounds from publication PMC6150201, “Synthesis and Antitumor Activity of Novel Arylpiperazine Derivatives Containing the Saccharin Moiety” (Molecules : A Journal of Synthetic Chemistry and Natural …, 2017).

Like-named read-outs stand apart in the source and are kept apart here.

As for `CC(C)(C)NC(=O)[C@H]1CC[C@H]2[C@@H]3CC[C@H]4NC(=O)C=C[C@]4(C)[C@H]3CC[C@]12C` [Finasteride], the figures for the concentration for half-maximal inhibition (IC50) in series [1], in series [2] and in series [3] were 17.8 µM, 14.5 µM and 13.5 µM, respectively.

Turning to `O=C1c2ccccc2S(=O)(=O)N1Cc1ccc(CCN2CCN(c3ccccn3)CC2)cc1` [Compound 5, Saccharin N-(1-(4-(methyl)phenethyl)-4-(pyridin-2-yl)piperazine)], the melting point is 149 to 150 °C. The same compound gave an IC50 in series [4] of over 50 µM. This compound registered a 50% inhibitory concentration (IC50) in series [5] of over 50 µM. The compound also registered an IC50 in series [6] (Homo sapiens, DU-145, 24 h, androgen-insensitive human prostate cancer cell line, CCK-8, 24 h exposure, mean ± SD of three experiments) of 3.57 ± 0.08 µM. Moreover, the “selective activity for DU145 cells over other cancer cells” value in series [6] (in words, from IC50 comparison) was “excellent selective activity”. The concentration for half-maximal inhibition (IC50) in series [7] was over 50 µM.
